Source: ChEMBL document CHEMBL5137025, “Tuberculosis Drug Discovery: Challenges and New Horizons” (J Med Chem, 2022)
In brackets after ≈: the same amount, converted by molar mass.

How the values were obtained:
[1] = test system: Mycobacterium tuberculosis; assay type: functional; details: H37Rv, 336 h, time 14 day
[2] = test system: Mycobacterium tuberculosis; test: Antibacterial activity against Mycobacterium tuberculosis Erdman in acute Mtb infection C57BL/6-IFN-gamma-tm1Ts KO mouse model assessed as reduction in log10 CFU in lungs at 50 mg/kg, po qd for 9 consecutive days; assay type: functional
[3] = test system: Mycobacterium tuberculosis; assay type: functional; details: H37Rv, 120 h, time 5 day
[4] = test system: HepG2; test: Cytotoxicity against human HepG2 cells assessed as reduction in cell viability treated for 72 hrs by Cell Titer Glo assay; assay type: functional
[5] = Half life in CD-1 mouse at 5 mg/kg, iv measured for 24 hrs; assay type: ADME, organism-based; details: in vivo
[6] = test system: Mycobacterium tuberculosis; test: Antibacterial activity against Mycobacterium tuberculosis Erdman (TMCC 107) in Mtb infection C3HeB/FeJ mouse model assessed as reduction in log10 CFU in lungs at 100 mg/kg, po via gavage upto 4 weeks; assay type: functional
[7] = Oral bioavailability in CD-1 mouse at 10 mg/kg measured for 24 hrs; assay type: ADME, organism-based; details: in vivo
[8] = test system: Mycobacterium tuberculosis; test: Antibacterial activity against Mycobacterium tuberculosis Erdman (TMCC 107) in chronic Mtb infection BALB/c mouse model assessed as reduction in log10 CFU in lungs at 100 mg/kg, po via gavage upto 8 weeks; assay type: functional
[9] = Half life in overnight fasted Sprague-Dawley rat at 5 mg/kg measured for 0.25 to 24 hrs; assay type: ADME, organism-based; details: in vivo, time 0.25-24 hrs
[10] = Absolute oral bioavailability in overnight fasted Sprague-Dawley rat at 5 mg/kg measured for 0.25 to 24 hrs; assay type: ADME, organism-based; details: in vivo, time 0.25-24 hrs
[11] = AUC in overnight fasted Sprague-Dawley rat at 5 mg/kg measured for 0.25 to 24 hrs; assay type: ADME, organism-based; design: time upper 24 hrs, dose 5 mg/kg, time lower 0.25 hrs; details: in vivo
[12] = Protein binding in human plasma; assay type: ADME, cell-free; details: read-out: PPB (converted)
[13] = test system: Mycobacterium tuberculosis; test: microbe, parasite or virus in culture; details: H37Rv
Description: Antibacterial activity against Mycobacterium tuberculosis H37Rv assessed as inhibition of bacterial growth

[14] = test system: A549; test: Cytotoxicity against human A549 cells; assay type: functional
[15] = Solubility of the compound; assay type: physicochemical
[16] = test system: Mycobacterium tuberculosis; test: Antibacterial activity against Mycobacterium tuberculosis Erdman in acute Mtb infection BALB/c mouse model assessed as reduction in log10 CFU in lungs at 150 mg/kg, po via gavage daily for 4 weeks; assay type: functional
[17] = test system: Mycobacterium tuberculosis; assay type: functional; details: H37Rv, time 6 day
[18] = Selectivity index, ratio of CC50 for human HepG2 cells to MIC99 for Mycobacterium tuberculosis H37Rv; assay type: toxicity
[19] = test system: HepG2; test: Cytotoxicity against human HepG2 cells; assay type: functional
[20] = test system: Mycobacterium tuberculosis; assay type: functional, H37Rv; details: dose 50 mg/kg; route po; time 4 weeks
[21] = test system: Mycobacterium tuberculosis; assay type: functional, H37Rv
[22] = test system: Mycobacterium tuberculosis; assay type: functional, H37Rv; details: dose 50 mg/kg/day; route po; time <= 28 day
[23] = test system: A549; test: Potency index, ratio of SKLB-TB1001 to test compound CC50 for cytotoxicity against human A549 cells; assay type: functional
[24] = test system: Mycobacterium tuberculosis; test: Bactericidal activity against Mycobacterium tuberculosis H37Rv in chronic Mtb infection BALB/c mouse model assessed as log10 CFU kill at 20 mg/kg, po qd via gavage measured after 4 weeks; assay type: functional
[25] = test system: Mycobacterium tuberculosis; test: Antibacterial activity against Mycobacterium tuberculosis in acute Mtb infection mouse model assessed as reduction in log10 CFU at 200 mg/kg for 3 weeks; assay type: functional
[26] = test system: Mycobacterium tuberculosis; test: Bactericidal activity against Mycobacterium tuberculosis in macrophages; assay type: functional, Macrophage
[27] = test system: Mycobacterium tuberculosis; assay type: functional; details: H37Rv, time 14-21 day
[28] = test system: Mycobacterium tuberculosis; assay type: functional, H37Rv; details: dose 25 mg/kg; route po; time 4 weeks
[29] = test system: Mycobacterium tuberculosis; test: Antibacterial activity against Mycobacterium tuberculosis Kurono in chronic Mtb infection Slc:ICR mouse model assessed as reduction in log10 CFU in lungs at 2.5 mg/kg, po qd for 4 weeks; assay type: functional
[30] = test system: Mycobacterium tuberculosis; test: Antibacterial activity against Mycobacterium tuberculosis in chronic Mtb infection Wistar rat model assessed as reduction in log10 CFU in lungs at 100 mg/kg, po; assay type: functional
[31] = test system: Mycobacterium tuberculosis; test: Antibacterial activity against Mycobacterium tuberculosis Erdman in acute Mtb infection BALB/c mouse model assessed as reduction in log10 CFU in lungs at 50 mg/kg, po via gavage for 8 weeks; assay type: functional
[32] = test system: Mycobacterium tuberculosis; assay type: functional; details: H37Rv

With `O=C(Nc1ccc(N2CCN(c3ccccn3)CC2)c(F)c1)c1ccc2no[n+]([O-])c2c1` the MIC90 [1] was 0.09 µM (≈ 0.0391 µg/mL).

`CCS(=O)(=O)N1N=Cc2ccc(Oc3ccc(C(F)(F)F)cc3/C=N/O)cc2B1O` showed an Activity [2] of 3.7 log10CFU, an MIC90 [3] of 0.09 µM (≈ 0.0397 µg/mL) and a CC50 [4] greater than 100 µM. It also gave a half-life [5] of 3.5 h, an Activity [6] of 1.5 log10CFU and a bioavailability [7] of 53%. The Activity [8] was 1.7 log10CFU.

With `O=C(Nc1ccc(N2CCSCC2)c(F)c1)c1ccc2no[n+]([O-])c2c1` the MIC90 [1] was 0.7 µM (≈ 0.262 µg/mL).

For `O=c1nc(N2CCC3(CC2)OCCO3)sc2c([N+](=O)[O-])cc(C(F)(F)F)cc12`, the half-life [9] was 1.5 h, the bioavailability [10] was 44% and the AUC [11] was 847 ng·h/mL. For the same compound, the fraction unbound [12] was 0.006, the MIC90 [13] was 0.045 µM (≈ 0.0188 µg/mL) and the CC50 [14] was greater than 231 µM. For the same compound, the solubility [15] was less than 2.3 µM and the Activity [16] was 3.4 log10CFU.

Compound `O=S(=O)(NCCO)c1ccc(-c2nnn(Cc3ccc(F)cn3)n2)cc1` has an MIC [13] of 0.07 µM (≈ 0.0265 µg/mL).

With `CS(=O)(=O)N1N=Cc2ccc(Oc3ccc(C#N)cc3)cc2B1O` the MIC90 [3] was 36 µM (≈ 12.3 µg/mL).

In the case of `O=c1nc(N2CCN(S(=O)(=O)C3CC3)CC2)sc2c([N+](=O)[O-])cc(C(F)(F)F)cc12`, the MIC99 [17] is reported as 0.0065 µM (≈ 0.00302 µg/mL), the selectivity ratio [18] is reported as 2620 and the CC50 [19] is reported as 17 µM. The solubility [15] was 19 µM (≈ 8.82 µg/mL) and the Activity [20] was 0.5 log10CFU.

In the case of `COc1ncc(-c2ccc(Cl)cc2)cc1[C@@H](c1ccccc1)[C@@](O)(CCN(C)C)c1cccc2ccccc12`, the MIC90 [13] is reported as 0.13 µM (≈ 0.0698 µg/mL).

Work on `COc1nc2ccc(Br)cc2cc1[C@@H](c1ccccc1)[C@@](O)(CCN(C)C)c1cccc2ccccc12` [BEDAQUILINE] yielded a Ratio [21] of 6 and an MIC90 [13] of 0.022 µM (≈ 0.0122 µg/mL).

With `C[C@H]1COC2(CCN(c3nc(=O)c4cc(C(F)(F)F)cc([N+](=O)[O-])c4s3)CC2)O1` [BTZ-043] the Activity [22] was 0.6 log10CFU, the half-life [9] was 1.2 h and the bioavailability [10] was 30%. It also gave an AUC [11] of 899 ng·h/mL, a Ratio [23] of 4 and a CC50 [14] of 58 µM.

Work on `Cc1cc(Nc2ncc(Cl)c(Nc3ccccc3S(=O)(=O)C(C)C)n2)c(OC(C)C)cc1C1CCNCC1` [CERITINIB] yielded an MIC90 [13] of 9 µM (≈ 5.02 µg/mL).

In the case of `CC(C)/N=c1\cc2n(-c3ccc(Cl)cc3)c3ccccc3nc-2cc1Nc1ccc(Cl)cc1` [CLOFAZIMINE], the Activity [24] is reported as 2.2 log10CFU.

`N[C@@H]1CONC1=O` [CYCLOSERINE] showed an MIC [13] of 157 µM (≈ 16 µg/mL).

`CCc1cc(C(N)=S)ccn1` [ETHIONAMIDE] showed an MIC [13] of 12 µM (≈ 1.99 µg/mL).

In the case of `C[C@@H](O)[C@H]1C(=O)N2C(C(=O)O)=C([C@H]3CCCO3)S[C@H]12` [FAROPENEM], the Activity [25] is reported as 2.4 log10CFU and the MIC90 [13] is reported as 1.8 µM (≈ 0.514 µg/mL).

`Cc1cccc(OC2CCN(Cc3cc(=O)[nH]c(=O)[nH]3)CC2)c1C` [GSK-2556286] showed an Activity [26] of less than 0.1 µM.

Compound `CC(=O)NC[C@H]1CN(c2ccc(N3CCOCC3)c(F)c2)C(=O)O1` [LINEZOLID] has an MIC [27] of 1.5 µM (≈ 0.506 µg/mL) and an MIC [13] of 1.5 µM (≈ 0.506 µg/mL).

`O=c1nc(N2CCN(CC3CCCCC3)CC2)sc2c([N+](=O)[O-])cc(C(F)(F)F)cc12` [MACOZINONE] gave an Activity [22] of 1.1 log10CFU and an Activity [28] of 1 log10CFU.

`O=C1CCc2c(OC[C@]3(O)CCN(c4c(F)cc(Cl)cc4F)C[C@H]3O)ccc(F)c2N1` [QUABODEPISTAT] showed an Activity [29] greater than 1 log10CFU.

`CC(C)=CCC/C(C)=C/CNCCNC1C2CC3CC(C2)CC1C3` (stereo unspecified) [SQ109] gave an MIC [13] of 1.2 µM (≈ 0.397 µg/mL).

In the case of `CC(=O)NC[C@H]1CN(c2ccc(N3CCSCC3)c(F)c2)C(=O)O1` [SUTEZOLID], the MIC80 [13] is reported as 0.28 µM (≈ 0.099 µg/mL).

In the case of `COc1ncnc(Cn2cc(C(=O)NCCO)c3ncc(C)cc32)c1C` [TBA-7371], the Activity [30] is reported as 1 log10CFU.

Compound `CCc1nc2ccc(Cl)cn2c1C(=O)NCc1ccc(N2CCC(c3ccc(OC(F)(F)F)cc3)CC2)cc1` [TELACEBEC] has an Activity [31] of 0.6 log10CFU, an MIC50 [32] of 0.0027 µM (≈ 0.0015 µg/mL) and an MIC90 [13] of 0.011 µM (≈ 0.00613 µg/mL).
